How the values were obtained:
[1] = tested on: Gsα; conditions: in utero exposure to ethanol; Western blot, normalized to β-actin; pregnant Sprague-Dawley dams, last two weeks of gestation
[2] = tested on: Dio3; conditions: fetal and adult frontal cortex and hippocampus; thyroid hormone levels inversely affected
[3] = tested on: TRα; conditions: in utero exposure to ethanol; Western blot, normalized to β-actin; pregnant Sprague-Dawley dams, last two weeks of gestation
[4] = tested on: GR; conditions: in utero exposure to ethanol; Western blot, normalized to β-actin; pregnant Sprague-Dawley dams, last two weeks of gestation
[5] = tested on: Dio3; conditions: in utero exposure to ethanol; Western blot, normalized to β-actin; pregnant Sprague-Dawley dams, last two weeks of gestation

CCO [ethanol]
Gsα protein levels in placenta [1]: up-regulation
Dio3 imprinting and total expression patterns [2]: alters
TRα protein levels in placenta [3]: down-regulation
GR protein levels in placenta [4]: down-regulation
Dio3 protein levels in placenta [5]: up-regulation

Source: patent US8383352B2, “Detection of maternal alcohol exposure” (Northwestern University, priority 2009, dated 2013)
